Measurements published in patent US20120238488A1, “COMPOUNDS AND METHODS FOR TREATING NEOPLASIA” (priority 2009, published 2012).
pIC50: −log10 of the molar value. Where two headings read alike, the source gives them in different places.

How the values were obtained:
[1] = system: Na+/K+-ATPase (Adenosine 5′-Triphosphatase isolated from porcine cerebral cortex); experiment: Na+/K+-ATPase inhibitory activity, colorimetric Adenosine 5'-Triphosphatase Enzymatic Assay; format: biochemical
Procedure: The inhibitory effect of a compound of the invention on ATPase activity was assessed in vitro using the colorimetric Adenosine 5′-Triphosphatase Enzymatic Assay of Sigma (St. Louis, Mo.) according to the manufacturer's instructions. This assay utilizes Adenosine 5′-Triphosphatase isolated from porcine cerebral cortex. Each reaction was performed in a final volume of 250 μl using 0.5 units/ml enzyme in the presence of different inhibitors. […] IC50 values were determined using the Origin® program software (OriginLab, Northampton, Mass.).

A549 (Lung) = experiment: SRB assay, A549; format: cell-based, human; settings: for TGI / GI50: A549, SRB, 48 h; for CC50 / GI50: Homo sapiens; for CC50: A549, 48 h, read-out: LC50
Procedure: (§1) SRB assays were performed according to standard National Cancer Institute Guidelines. Briefly, human tumor cells from different cancer panels were seeded into 96 well plates in 100 μL (plating densities ranging from 5-40,000 cells/well depending on the doubling time of individual cell lines) in serum-containing media for twenty-four hours prior to the addition of the compounds to be assayed. After 24 hours, one plate of each cell line was fixed in situ with trichloroacetic acid (TCA). The fixed slides were used to determine the cell population for each cell line at the time of drug addition (Tz). Each compound to be tested was solubilized in DMSO and the desired concentration was then added to the medium and diluted serially 1:10 to provide a total of five or ten drug concentrations plus control (in a final volume of 200 μL). The starting dose before any dilution was 100 uM for all compounds.
(§2) Following drug addition, each culture was incubated for forty-eight hours. The assay was terminated with the addition of cold TCA. The supernatant was discarded, and the plates were washed with tap water and air dried. Sulforhodamine B (SRB) solution was then added to each well. After staining, the bound stain was solubilized and the absorbance was read on an automated plate reader at a wavelength of 515 nm.
(§3) Using the absorbance measurements [time zero, (Tz), control growth, (C), and test growth in the presence of drug at the ten concentration levels (Ti)], the percentage growth was calculated at each of the drug concentrations levels. Percentage growth inhibition was calculated as:
(§4) [(Ti−Tz)/(C−Tz)]×100 for concentrations for which Ti>/=Tz
(§5) [(Ti−Tz)/Tz]×100 for concentrations for which Ti<Tz.
(§6) Three dose response parameters were calculated for each experimental agent. Growth inhibition of 50% (GI50) was calculated from [(Ti−Tz)/(C−Tz)]×100=50, which was the drug concentration resulting in a 50% reduction in the net protein increase (as measured by SRB staining) in control cells during the drug. The drug concentration resulting in total growth inhibition (TGI) was calculated from Ti=Tz. The LC50 (concentration of drug resulting in a 50% reduction in the measured protein at the end of the drug treatment as compared to that at the beginning) indicating a net loss of cells following treatment was calculated from [(Ti−Tz)/Tz]×100=−50.
(§7) Values were calculated for each of these three parameters when the level of activity was reached; however, if the effect was not reached or was exceeded, the value for that parameter was expressed as greater or less than the maximum or minimum concentration tested.
(§8) Table 4 summarizes results characterizing the effects of compound Nos. 120, 12, 61, 1, and 56 on GI50, which measures the cell growth inhibitory power of the compound, TGI, which measures cytostatic effect (TGI) and LC50, which signifies cytotoxic effect. Each of these parameters in Table 4 was calculated in a sulforhodamine B (SRB) assay, which provides a colorimetric measure of a compound's anti-cancer activity. SRB assays were performed with compounds of the invention in 22 different cell lines (shaded in light gray in Table 4), which represent nine different tumor panels (lung, melanoma, ovary, prostate, CNS, breast, pancreas colon and renal). Ouabain and digoxin were used as controls. Paclitaxel was added as a non-Na^+K^+-ATPase inhibitor control.

ERVK (Lung) = experiment: SRB assay, ERVK; format: cell-based, human; settings: 48 h; for TGI / GI50: ERVK, SRB; for CC50 / GI50: Homo sapiens; for CC50: read-out: LC50
Procedure: as §1, §2, §3, §4, §5, §6, §7, §8

SKMEL28 (Melanoma) = experiment: SRB assay, SKMEL28; format: cell-based, human; settings: for CC50 / GI50: Homo sapiens; for CC50: SK-MEL-28, 48 h, read-out: LC50; for GI50: SK-MEL-28; for GI50 / TGI: SKMEL28, SRB, 48 h
Procedure: as §1, §2, §3, §4, §5, §6, §7, §8

MB435 (Melanoma) = experiment: SRB assay, MB435; format: cell-based, human; settings: 48 h; for CC50 / GI50: Homo sapiens; for CC50: read-out: LC50; for GI50 / TGI: MB435, SRB
Procedure: as §1, §2, §3, §4, §5, §6, §7, §8

OVCAR5 (Ovary) = experiment: SRB assay, OVCAR5; format: cell-based, human; settings: for CC50 / GI50: Homo sapiens; for CC50: OVCAR-5, 48 h, read-out: LC50; for GI50: OVCAR-5; for GI50 / TGI: OVCAR5, SRB, 48 h
Procedure: as §1, §2, §3, §4, §5, §6, §7, §8

OVCAR3 (Ovary) = experiment: SRB assay, OVCAR3; format: cell-based, human; settings: for CC50 / GI50: Homo sapiens; for CC50: OVCAR-3, 48 h, read-out: LC50; for GI50: OVCAR-3; for GI50 / TGI: OVCAR3, SRB, 48 h
Procedure: as §1, §2, §3, §4, §5, §6, §7, §8

ADRRES (Ovary) = experiment: SRB assay, ADRRES (multidrug resistant NCI-ADR-RES); format: cell-based, human; settings: for TGI / GI50: ADRRES; for TGI / CC50 / GI50: 48 h; for CC50 / GI50: Homo sapiens, NCI/ADR-RES; for CC50: read-out: LC50
Procedure: NCI-ADR-RES cells have been classified as ovarian cancer cells by the National Cancer Institute.
as §1, §2, §3, §4, §5, §6, §7, §8
Table 4 also presents results with Compound Nos. 120, 12, 61, 1, and 56 in a well characterized drug resistant cell line, NCI-ADR-RES, that expresses high levels of MDR1 and P-glycoprotein.

DU145 (Prostate) = experiment: SRB assay, DU145; format: cell-based, human; settings: for TGI / GI50: DU145, SRB, 48 h; for CC50 / GI50: Homo sapiens; for CC50: DU-145, 48 h, read-out: LC50; for GI50: DU-145
Procedure: as §1, §2, §3, §4, §5, §6, §7, §8

PCJ (Prostate) = experiment: SRB assay, PCJ; format: cell-based; settings: Homo sapiens, 48 h; for CC50: read-out: LC50; for GI50 / IC (TGI): PCJ, SRB
Procedure: as §1, §2, §3, §4, §5, §6, §7, §8

SF268 (CNS) = experiment: SRB assay, SF268; format: cell-based; settings: Homo sapiens; for CC50: read-out: LC50; for IC (TGI): read-out: TGI
Procedure: as §1, §2, §3, §4, §5, §6, §7, §8

HCT116 (Colon) = experiment: SRB assay, HCT116; format: cell-based; settings: Homo sapiens; for CC50: HCT-116, 48 h, read-out: LC50; for GI50 / IC (TGI): HCT-116, HCT116, SRB, 48 h
Procedure: as §1, §2, §3, §4, §5, §6, §7, §8

CAKJ1 (Renal) = experiment: SRB assay, CAKJ1; format: cell-based, human; settings: 48 h; for TGI / GI50: CAKJ1, SRB; for CC50 / GI50: Homo sapiens; for CC50: read-out: LC50
Procedure: as §1, §2, §3, §4, §5, §6, §7, §8

SMILES	TGI (A549 (Lung))	CC50 (A549 (Lung))	GI50 (A549 (Lung))	TGI (ERVK (Lung))	CC50 (ERVK (Lung))	GI50 (ERVK (Lung))	CC50 (SKMEL28 (Melanoma))	GI50 (SKMEL28 (Melanoma))	TGI (SKMEL28 (Melanoma))	CC50 (MB435 (Melanoma))	GI50 (MB435 (Melanoma))	TGI (MB435 (Melanoma))	CC50 (OVCAR5 (Ovary))	GI50 (OVCAR5 (Ovary))	TGI (OVCAR5 (Ovary))	CC50 (OVCAR3 (Ovary))	GI50 (OVCAR3 (Ovary))	TGI (OVCAR3 (Ovary))	TGI (ADRRES (Ovary); SRB)	CC50 (ADRRES (Ovary))	further results
C[C@]12CCC(=NOCCN)C=C1CCC1C2CC[C@@]2(C)C1CC[C@@H]2O (stereo partly drawn) [Compound 120, (1S,9aR,11aS)-17-hydroxy-10,13-dimethyl-6,7,8,9,10,11,12,13,14,15,16,17-dodecahydro-1H-cyclopenta[a]phenanthren-3(2H)-one O-2-aminoethyl oxime]	62.82 µM	≥ 179 µM	6.91 µM	38.23 µM	≥ 105 µM	4.57 µM	79.6 µM	19.9 µM	49.74 µM	98.9 µM	7.29 µM	38.95 µM	87.1 µM	20.5 µM	53.80 µM	> 100 µM	6.5 µM	41.51 µM	42.91 µM	81.9 µM	Na+K+ ATPase inhibitory activity (in words) [1]: strong Na+K+ ATPase inhibitory activities; pIC50 ([1]; 0.5 units/ml enzyme, five concentrations 10^−5 to 10^−9M, read-out: Na+ K+ Inhibitory Activity (IC50)): 6.05; GI50 (ADRRES (Ovary); SRB): 8.73 µM; GI50 in NCI-ADR-RES cells compared to non-resistant MCF-7 cells (ADRRES (Ovary); SRB): the same GI50 value; anti-tumor action in multidrug resistant cell line NCI-ADR-RES (ADRRES (Ovary); SRB, cells express high levels of MDR1 and P-glycoprotein): potent anti-tumor action; TGI (DU145 (Prostate)): 13.54 µM; CC50 (DU145 (Prostate)): 68.5 µM; GI50 (DU145 (Prostate)): 5.87 µM; CC50 (PCJ (Prostate)): 29.4 µM; GI50 (PCJ (Prostate)): 4.57 µM; IC (TGI) (PCJ (Prostate)): 14.2 µM; CC50 (SF268 (CNS); SF-268, 48 h): 20.4 µM; GI50 (SF268 (CNS); SF-268, SF268, SRB, 48 h, read-out: GI50): 4.65 µM; IC (TGI) (SF268 (CNS); SF-268, SF268, SRB, 48 h): 9.08 µM; CC50 (HCT116 (Colon)): 39.2 µM; GI50 (HCT116 (Colon)): 4.28 µM; IC (TGI) (HCT116 (Colon)): 16.1 µM; TGI (CAKJ1 (Renal)): 9.90 µM; CC50 (CAKJ1 (Renal)): 61 µM; GI50 (CAKJ1 (Renal)): 4.91 µM
C[C@H]1O[C@@H](O[C@H]2[C@@H](O)C[C@H](O[C@H]3[C@@H](O)C[C@H](O[C@H]4CC[C@@]5(C)[C@H](CC[C@@H]6[C@@H]5C[C@@H](O)[C@]5(C)[C@@H](C7=CC(=O)OC7)CC[C@]65O)C4)O[C@@H]3C)O[C@@H]2C)C[C@H](O)[C@@H]1O [Digoxin, reference compound]	0.06 µM	1.14 µM	< 0.001 µM	0.09 µM	0.68 µM	< 0.01 µM	> 100 µM	0.08 µM	6.50 µM	7.69 µM	0.07 µM	0.53 µM	0.84 µM	< 0.01 µM	0.43 µM	22.2 µM	< 0.01 µM	2.65 µM	0.10 µM	0.75 µM	pIC50 ([1]; read-out: Na+K+ ATPase inhibitory activity IC50): 6.69; GI50 (ADRRES (Ovary); SRB): 0.04 µM; TGI (DU145 (Prostate)): 0.07 µM; CC50 (DU145 (Prostate)): 0.36 µM; GI50 (DU145 (Prostate)): 0.03 µM; CC50 (PCJ (Prostate)): 0.3 µM; GI50 (PCJ (Prostate)): < 0.08 µM; IC (TGI) (PCJ (Prostate)): 0.1 µM; GI50 (SF268 (CNS); SF-268, 48 h): < 0.08 µM; CC50 (SF268 (CNS); SF-268, 48 h): 0.1 µM; IC (TGI) (SF268 (CNS); SF-268, 48 h): < 0.08 µM; CC50 (HCT116 (Colon)): > 50 µM; GI50 (HCT116 (Colon)): < 0.08 µM; IC (TGI) (HCT116 (Colon)): 0.7 µM; TGI (CAKJ1 (Renal)): 0.07 µM; CC50 (CAKJ1 (Renal)): 0.2 µM; GI50 (CAKJ1 (Renal)): < 0.01 µM
